The text below walks through data of ChEMBL document CHEMBL3045547, “Synthesis, characterization and antimicrobial screening of hybrid molecules containing benzimidazole-pyrazole and pyridine nucleus” (2012).

Holding throughout (type): functional
One assay deals with Streptococcus pyogenes. Put plainly: Antimicrobial activity against Streptococcus pyogenes MTCC 442 after 24 to 48 hr by serial broth dilution method. A general note: In broth dilution the organism is exposed to a series of concentrations in liquid medium.
Another assay deals with Escherichia coli. The assay can be described thus: Antimicrobial activity against Escherichia coli MTCC 443 after 24 to 48 hr by serial broth dilution method.
The next assay deals with Staphylococcus aureus. The assay can be described thus: Antimicrobial activity against Staphylococcus aureus MTCC 96 after 24 to 48 hr by serial broth dilution method.
For a further assay, the system named is Pseudomonas aeruginosa. Put plainly: Antimicrobial activity against Pseudomonas aeruginosa MTCC 1688 after 24 to 48 hr by serial broth dilution method.
The next assay concerns Candida albicans. The assay can be described thus: Antimicrobial activity against Candida albicans MTCC 227 after 72 hr by serial broth dilution method. The settings on record: MTCC 227, 72 h.
Another assay has as its system Aspergillus niger. Put plainly: Antimicrobial activity against Aspergillus niger MTCC 282 serial after 72 hr by broth dilution method. The settings on record: MTCC 282, 72 h.
A further assay deals with Aspergillus clavatus. Put plainly: Antimicrobial activity against Aspergillus clavatus MTCC 1323 after 72 hr by serial broth dilution method. Conditions: MTCC 1323, 72 h.

≈ marks a conversion by molar mass, not a printed value.

As to `O=C(c1ccncc1)N1N=C(c2nc3ccccc3[nH]2)CC1c1cccc([N+](=O)[O-])c1` (stereo not given), the MIC in the assay with Streptococcus pyogenes is 500 µg/mL (≈ 1210 µM); against Escherichia coli, 100 µg/mL (≈ 242 µM); in the assay on Staphylococcus aureus, 500 µg/mL (≈ 1210 µM); against Pseudomonas aeruginosa, 100 µg/mL (≈ 242 µM); in the assay on Candida albicans, 500 µg/mL (≈ 1210 µM); against Aspergillus niger it was 200 µg/mL (≈ 485 µM). Further, in the assay with Aspergillus clavatus, the MIC worked out at 100 µg/mL (≈ 242 µM).
As to `COc1cc(C2CC(c3nc4ccccc4[nH]3)=NN2C(=O)c2ccncc2)ccc1O` (stereo not given), the MIC in the assay on Streptococcus pyogenes is 100 µg/mL (≈ 242 µM); with Escherichia coli, 250 µg/mL (≈ 605 µM); against Staphylococcus aureus, 100 µg/mL (≈ 242 µM); with Pseudomonas aeruginosa it was 500 µg/mL (≈ 1210 µM); against Candida albicans it was 500 µg/mL (≈ 1210 µM); in the assay on Aspergillus niger it was 100 µg/mL (≈ 242 µM). In the assay with Aspergillus clavatus, this compound gave an MIC of 200 µg/mL (≈ 484 µM).
Take `O=C(c1ccncc1)N1N=C(c2nc3ccccc3[nH]2)CC1c1ccc(Br)cc1` (stereo not given): the MIC in the assay on Streptococcus pyogenes was found to be 250 µg/mL (≈ 560 µM); with Escherichia coli it was 250 µg/mL (≈ 560 µM); with Staphylococcus aureus, 250 µg/mL (≈ 560 µM); with Pseudomonas aeruginosa, 250 µg/mL (≈ 560 µM); with Candida albicans, 1000 µg/mL (≈ 2240 µM); in the assay with Aspergillus niger, 1000 µg/mL (≈ 2240 µM). In addition, inhibition of growth in the assay with Aspergillus clavatus (MIC) required 1000 µg/mL (≈ 2240 µM).
For the compound `CN(C)c1ccc(C2CC(c3nc4ccccc4[nH]3)=NN2C(=O)c2ccncc2)cc1` (stereo not given), the MIC against Streptococcus pyogenes was determined as 250 µg/mL (≈ 609 µM); against Escherichia coli it was 250 µg/mL (≈ 609 µM); with Staphylococcus aureus, 250 µg/mL (≈ 609 µM); against Pseudomonas aeruginosa it was 100 µg/mL (≈ 244 µM); against Candida albicans it was 1000 µg/mL (≈ 2440 µM); in the assay on Aspergillus niger, 25 µg/mL (≈ 60.9 µM). In the assay with Aspergillus clavatus, this compound yielded an MIC of 100 µg/mL (≈ 244 µM).
For `O=C(c1ccncc1)N1N=C(c2nc3ccccc3[nH]2)CC1c1ccccc1` (stereo not given), the MIC with Streptococcus pyogenes worked out at 100 µg/mL (≈ 272 µM); with Escherichia coli it was 250 µg/mL (≈ 680 µM); in the assay on Staphylococcus aureus it was 250 µg/mL (≈ 680 µM); against Pseudomonas aeruginosa it was 500 µg/mL (≈ 1360 µM); against Candida albicans, 250 µg/mL (≈ 680 µM); against Aspergillus niger it was 200 µg/mL (≈ 544 µM). In the assay with Aspergillus clavatus, this compound came in with an MIC of 500 µg/mL (≈ 1360 µM).
Turning to `O=C(c1ccncc1)N1N=C(c2nc3ccccc3[nH]2)CC1c1cccc(O)c1` (stereo not given), the MIC with Streptococcus pyogenes was found to be 50 µg/mL (≈ 130 µM); with Escherichia coli it was 100 µg/mL (≈ 261 µM); against Staphylococcus aureus it was 100 µg/mL (≈ 261 µM); in the assay on Pseudomonas aeruginosa, 25 µg/mL (≈ 65.2 µM); with Candida albicans it was 500 µg/mL (≈ 1300 µM); in the assay on Aspergillus niger it was 100 µg/mL (≈ 261 µM). This compound showed an MIC against Aspergillus clavatus of 500 µg/mL (≈ 1300 µM).
On to `O=C(c1ccncc1)N1N=C(c2nc3ccccc3[nH]2)CC1c1ccc(Cl)cc1` (stereo not given), for which the MIC in the assay with Streptococcus pyogenes was 250 µg/mL (≈ 622 µM); against Escherichia coli, 500 µg/mL (≈ 1240 µM); against Staphylococcus aureus it was 250 µg/mL (≈ 622 µM); with Pseudomonas aeruginosa, 500 µg/mL (≈ 1240 µM); in the assay on Candida albicans, 1000 µg/mL (≈ 2490 µM); against Aspergillus niger, 1000 µg/mL (≈ 2490 µM). For the same compound, the MIC in the assay with Aspergillus clavatus was determined as 1000 µg/mL (≈ 2490 µM).
`O=C(c1ccncc1)N1N=C(c2nc3ccccc3[nH]2)CC1c1ccccc1O` (stereo not given): the MIC against Streptococcus pyogenes worked out at 100 µg/mL (≈ 261 µM); in the assay with Escherichia coli, 500 µg/mL (≈ 1300 µM); against Staphylococcus aureus, 125 µg/mL (≈ 326 µM); against Pseudomonas aeruginosa it was 100 µg/mL (≈ 261 µM); against Candida albicans it was 100 µg/mL (≈ 261 µM); with Aspergillus niger it was 1000 µg/mL (≈ 2610 µM). The MIC against Aspergillus clavatus worked out at 100 µg/mL (≈ 261 µM).
Regarding `O=C(c1ccncc1)N1N=C(c2nc3ccccc3[nH]2)CC1c1ccc(F)cc1` (stereo not given), the MIC worked out at 100 µg/mL (≈ 259 µM) with Streptococcus pyogenes; 500 µg/mL (≈ 1300 µM) against Escherichia coli; 500 µg/mL (≈ 1300 µM) in the assay on Staphylococcus aureus; 100 µg/mL (≈ 259 µM) in the assay with Pseudomonas aeruginosa; 500 µg/mL (≈ 1300 µM) against Candida albicans; 200 µg/mL (≈ 519 µM) against Aspergillus niger. The same compound came in with an MIC with Aspergillus clavatus of 500 µg/mL (≈ 1300 µM).
As to `O=C(c1ccncc1)N1N=C(c2nc3ccccc3[nH]2)CC1c1ccc(O)cc1` (stereo not given), the MIC in the assay with Streptococcus pyogenes amounted to 250 µg/mL (≈ 652 µM); against Escherichia coli, 25 µg/mL (≈ 65.2 µM); in the assay on Staphylococcus aureus, 250 µg/mL (≈ 652 µM); in the assay with Pseudomonas aeruginosa, 250 µg/mL (≈ 652 µM); against Candida albicans it was 100 µg/mL (≈ 261 µM); against Aspergillus niger it was 1000 µg/mL (≈ 2610 µM). For the same compound, in the assay on Aspergillus clavatus, 1000 µg/mL (≈ 2610 µM) was the least that counted as inhibitory (MIC).
Take `COc1ccc(C2CC(c3nc4ccccc4[nH]3)=NN2C(=O)c2ccncc2)cc1` (stereo not given): the MIC in the assay on Streptococcus pyogenes was 200 µg/mL (≈ 503 µM); with Escherichia coli it was 100 µg/mL (≈ 252 µM); with Staphylococcus aureus it was 125 µg/mL (≈ 315 µM); against Pseudomonas aeruginosa it was 50 µg/mL (≈ 126 µM); in the assay with Candida albicans, 500 µg/mL (≈ 1260 µM); against Aspergillus niger it was 200 µg/mL (≈ 503 µM). The MIC against Aspergillus clavatus stood at 500 µg/mL (≈ 1260 µM).
Turning to `O=C(c1ccncc1)N1N=C(c2nc3ccccc3[nH]2)CC1c1ccc([N+](=O)[O-])cc1` (stereo not given), the MIC with Streptococcus pyogenes turned out to be 500 µg/mL (≈ 1210 µM); in the assay with Escherichia coli, 50 µg/mL (≈ 121 µM); in the assay with Staphylococcus aureus, 500 µg/mL (≈ 1210 µM); against Pseudomonas aeruginosa it was 500 µg/mL (≈ 1210 µM); against Candida albicans, 500 µg/mL (≈ 1210 µM); against Aspergillus niger, 200 µg/mL (≈ 485 µM). For the same compound, the MIC in the assay on Aspergillus clavatus worked out at 100 µg/mL (≈ 242 µM).
For the compound `Cc1ccc(C2CC(c3nc4ccccc4[nH]3)=NN2C(=O)c2ccncc2)cc1` (stereo not given), the MIC was 250 µg/mL (≈ 655 µM) against Streptococcus pyogenes; 25 µg/mL (≈ 65.5 µM) against Escherichia coli; 100 µg/mL (≈ 262 µM) in the assay with Staphylococcus aureus; 50 µg/mL (≈ 131 µM) in the assay on Pseudomonas aeruginosa; 1000 µg/mL (≈ 2620 µM) in the assay on Candida albicans; 1000 µg/mL (≈ 2620 µM) against Aspergillus niger. This compound had an MIC against Aspergillus clavatus of 1000 µg/mL (≈ 2620 µM).
For the compound `CC1(C)S[C@@H]2[C@H](NC(=O)[C@H](N)c3ccccc3)C(=O)N2[C@H]1C(=O)O` [AMPICILLIN], the MIC in the assay on Streptococcus pyogenes turned out to be 100 µg/mL (≈ 286 µM); against Escherichia coli, 100 µg/mL (≈ 286 µM); in the assay with Staphylococcus aureus, 250 µg/mL (≈ 715 µM); in the assay with Pseudomonas aeruginosa, 100 µg/mL (≈ 286 µM).
For the compound `O=C(c1ccncc1)N1N=C(c2nc3ccccc3[nH]2)CC1c1ccccc1Cl` (stereo not given), the MIC in the assay with Streptococcus pyogenes worked out at 500 µg/mL (≈ 1240 µM); in the assay with Escherichia coli it was 100 µg/mL (≈ 249 µM); in the assay with Staphylococcus aureus, 250 µg/mL (≈ 622 µM); in the assay with Pseudomonas aeruginosa, 500 µg/mL (≈ 1240 µM); against Candida albicans, 500 µg/mL (≈ 1240 µM); in the assay with Aspergillus niger, 1000 µg/mL (≈ 2490 µM). This compound also came in with an MIC against Aspergillus clavatus of 1000 µg/mL (≈ 2490 µM).
`COC1=CC(=O)C[C@@H](C)[C@]12Oc1c(Cl)c(OC)cc(OC)c1C2=O` [GRISEOFULVIN]: the MIC is 500 µg/mL (≈ 1420 µM) in the assay with Candida albicans, 100 µg/mL (≈ 283 µM) against Aspergillus niger and 100 µg/mL (≈ 283 µM) in the assay on Aspergillus clavatus.

By MIC is commonly meant the lowest concentration that inhibits growth of the organism. A low value points to inhibition by little substance.
